For test [1], the system named is HepG2 cells. Briefly: Cell migration inhibition assay (xCELLigence, CIM plates). Format: cell-based, human. The conditions noted are these: 24 h pre-incubation at one-fourth of IC50. On the procedure:
By using the xCELLigence platform, we evaluated migration potential of HepG2 cells after the administration of compounds. We incubated the cells with compounds 54–61 at the concentration corresponding to one-fourth of the IC50 value for 24 h before the analysis, and the cells were then seeded on a CIM plate. Impedance-based cell index (CI) of HepG2 cells was measured every 30 min for 72 h. […] The most significant changes were observed within the first 24 h (Figure 3A). Thus, to obtain more insight into the altered migration profile caused by the analyzed compounds, we additionally calculated the slope representing the rate of change of the cell index within the first 24 h.
Transwell cell migration experiments were performed using xCELLigence RTCA Analyzer (Roche) in Cell Invasion and Migration (CIM) plates (ACEA Biosciences, San Diego, CA, USA). Each well consisted of an upper and a lower chamber separated by a microporous polyethylene terephthalate (PET) membrane containing randomly distributed 8 μm-pores. Prior to the migration assay, HepG2 cells (15 × 10^3) were seeded onto 48-well plates containing the growth medium (EMEM) and incubated until 70–80% confluency and incubated at 37 °C in a humidified atmosphere containing 5% CO2. Subsequently, the cells were treated for 24 h with the tested compounds at the final concentration corresponding to the one-fourth of IC50 value. Next, 160 μL of complete growth medium (supplemented with 10% FBS) was added to the lower chamber and 50 μL of serum-free growth medium to the upper chambers of CIM plate. The plates were incubated at 37 °C and 5% CO2 saturation for 1 h prior to insertion into the xCELLigence platform. To initiate a transwell migration experiment, cells were detached, resuspended in the serum-free growth medium, and seeded in the upper chamber at a density of 1 × 10^4 cells in 100 μL per well, previously treated with the compounds. The impedance of the microelectrode array was monitored and converted to the cell index (CI). Normalization values were recorded using the RTCA Software 1.2.1. […]
Figure 3 Real-time migration potential of HepG2 cells after 24 h administration of compounds 54–61. The migration potential of the cells was monitored using the xCELLigence system. HepG2 cells were incubated with the analyzed compounds for 24 h before the analysis at the concentration corresponding to one-fourth of the IC50 value. The impedance (cell index values) was measured every 30 min for the next 72 h. To eliminate the influence of the solvent, DMSO was added to the cells in a volume that corresponded to the highest compound concentration (A). The slope parameter represents the rate of changes in CI values of HepG2 cells within the first 24 h (B). […]

Test [2] deals with HepG2 cells. The test can be described thus: Oxidative stress (ROS) measurement by flow cytometry, CellROX Deep Red. Type of test: cell-based, human. The conditions noted are these: HepG2, 24 h at total IC50. On the procedure: To determine the effect of the compounds on HepG2 cells, we analyzed oxidative status after 24 h of treatment as the pathological level of ROS affects the proper functioning of proteins, lipids, and nucleic acids. The compounds were added to the growth medium at a concentration that corresponds to the total IC50 value. After incubation, the cells were stained with CellROX Deep Red Reagent, which is an oxidative stress indicator. This is a non-fluorescent dye that emits red fluorescent signal upon oxidation by ROS. […] We observed an increase in fluorescence intensity of approximately 22–32% as compared to that of control cells (Figure 5 and Figure S298, ESI).
HepG2 cells (3.85 × 10^5) were seeded onto 6-well plates, cultured with EMEM media at 37 °C and 5% CO2 saturation, and incubated until 60–70% confluence. Subsequently, the cells were treated for 24 h with the tested compounds at a concentration corresponding to their total IC50 values. […] The level of intracellular ROS generation was analyzed by staining with CellROX™ Deep Red Reagent (ex/em: ~644/665 nm) according to the manufacturer’s protocol (Thermo Fisher Scientific, Waltham, MA, USA), in which fluorescence was triggered in the presence of ROS. […] The cells were analyzed after incubation with the dye, with excitation at […] by the FACSCalibur flow cytometer (Becton Dickinson), and data were analyzed by FlowJo software. […]

As for “N-[2-N-Pyrrolidinyl)ethyl]-4-[(6-(2-(1,7-dicarba-closo-dodecaborane-1-yl)-ethylamino)hexyl)amino]-1,8-naphthalimide [Compound 61]”, the “effect on migration potential of HepG2 cells (cell index, slope in first 24 h)” value (“effect … (cell index, slope in first 24 h)” below) in test [1] is “highest impairment”. Besides, in test [2], the “increase in CellROX fluorescence intensity (ROS) as compared to control” value stood at 65%.

Take “N-[2-N-Pyrrolidinyl)ethyl]-4-[(6-(2-(1,2-dicarba-closo-dodecaborane-1-yl)-ethylamino)hexyl)amino]-1,8-naphthalimide [Compound 60]”: the “effect … (cell index, slope in first 24 h)” value in test [1] was “influenced the migratory activity most”. The “increase in CellROX fluorescence intensity (ROS) as compared to control” value in test [2] stood at 64%.

On to “N-[2-(Pyrrolidin-1-yl)ethyl]-4-[(2-(2-(1,2-dicarba-closo-dodecaborane-1-yl)-ethylamino)ethyl)amino]-1,8-naphthalimide [Compound 56]”, for which, in test [1], the “effect … (cell index, slope in first 24 h)” value was “influenced the migratory activity most”.

For the substance “N-[2-(Pyrrolidin-1-yl)ethyl]-4-[(2-(2-(1,7-dicarba-closo-dodecaborane-1-yl)-ethylamino)ethyl)amino]-1,8-naphthalimide [Compound 57]”, in test [1], the “effect … (cell index, slope in first 24 h)” value was “influenced the migratory activity most”.

These data come from paper PMC9101373, “Design of DNA Intercalators Based on 4-Carboranyl-1,8-Naphthalimides: Investigation of Their DNA-Binding Ability and Anticancer Activity” (International Journal of Molecular Sciences, 2022).
